Laboratory results published in patent publication US10329309B2, “3-(3H-imidazo[4,5-B]pyridin-2-yl)-1H-pyrazolo[4,3-B]pyridines and therapeutic uses thereof” (Samumed, LLC, priority 2015, dated 2019).

Test system: IL-6 (THP-1 cells)
Test: Inhibition of IL-6 in LPS-stimulated THP-1 monocytes (HTRF)
Format: cell-based
Settings: Homo sapiens; for EC50: LPS 500 ng/mL, IL-6 by HTRF; for inhibition at 10 µM: LPS stimulated, IL-6, at 10 μM, read-out: percent inhibition at 10 μM (given for EC50 of >10 μM)
Protocol: Human monocyte cell line (THP-1 cells; Catalog # TIB-202, ATCC, Manassas, Va.) were cultured in Roswell Park Memorial Institute (RPMI) 1640 Medium (Catalog #21870-100, Buffalo, N.Y.) with 1% L-glutamine, 1% HEPES, 1% Sodium Pyruvate, 2% Sodium Bicarbonate supplemented with 100 units/mL penicillin, 50 μg/mL streptomycin, 2-mercaptoethanol (0.05 mM) [basal medium] and 10% fetal bovine serum (Catalog #16140089, Life Technologies, Carlsbad, Calif.) at 37° C. and 5% CO2.
THP-1 cells were cultured in basal media with 1% FBS for 24 hours before the start of the assay. Each compound was dissolved in DMSO as a 10 mM stock and used to prepare compound source plates. Serial dilution (1:3, 10-point dose-response curves starting from 10 μM) and compound transfer was performed using the ECHO 550 (Labcyte, Sunnyvale, Calif.) into 384-well white low volume assay plates (Greiner Bio-One) with appropriate DMSO backfill for a final DMSO concentration of 0.1%. THP-1 cells were plated at 5000 cells/well in the 384-well plates and incubated at 37° C. for 2 h. 500 ng/mL of LPS was added after 2 hours and cells were incubated for another 22 hours at 37° C. Plates were spun in a centrifuge for 1 minute at […] and a mixture of anti-IL6 XL665, and anti-IL6 Cryptate diluted in reconstitution buffer (Cisbio Inc.) was added to each well. Following incubation for 3 hrs at room temperature, Homogeneous Time-Resolved Fluorescence (HTRF) was measured using the Envision (Perkin Elmer) at 665 nm and […]. The ratio of fluorescence at 665 nm to 620 nm was used as a readout for IL6 quantification. All samples were processed in duplicate. Readings were normalized to DMSO treated cells and normalized activities were utilized for EC50 calculations using the dose-response log (inhibitor) vs. response -variable slope (four parameters) nonlinear regression feature available in GraphPad Prism 5.0 (or Dotmatics). For EC50 of >10 μM, the percent inhibition at 10 μM is provided.

SMILES | EC50 | inhibition at 10 µM
O=C(Nc1cncc(-c2ccc3[nH]nc(-c4nc5c(-c6ccccc6F)ccnc5[nH]4)c3n2)c1)C1CCCC1 [Compound 78, N-(5-(3-(7-(2-fluorophenyl)-3H-imidazo[4,5-b]pyridin-2-yl)-1H-pyrazolo [4,3-b]pyridin-5-yl)pyridin-3-yl)cyclopentanecarboxamide] | 7.92 µM | –
CN1CCN(c2ccnc3[nH]c(-c4n[nH]c5ccc(-c6cncc(NC(=O)C7CCCC7)c6)nc45)nc23)CC1 [Compound 246, N-(5-(3-(7-(4-Methylpiperazin-1-yl)-3H-imidazo[4,5-b]pyridin-2-yl)-1H-pyrazolo[4,3-b]pyridin-5-yl)pyridin-3-yl)cyclopentanecarboxamide] | > 10 µM | 15.7%
CN1CCN(c2ccnc3[nH]c(-c4n[nH]c5ccc(-c6cncnc6)nc45)nc23)CC1 [Compound 251, 3-(7-(4-Methylpiperazin-1-yl)-3H-imidazo[4,5-b]pyridin-2-yl)-5-(pyrimidin-5-yl)-1H-pyrazolo[4,3-b]pyridine] | > 10 µM | 8.3%
O=C(Cc1ccccc1)Nc1cncc(-c2ccc3[nH]nc(-c4nc5cccnc5[nH]4)c3n2)c1 [Compound 262, N-(5-(3-(3H-imidazo[4,5-b]pyridin-2-yl)-1H-pyrazolo[4,3-b]pyridin-5-yl)pyridin-3-yl)-2-phenylacetamide] | > 10 µM | 17.3%
CC(C)(C)CC(=O)Nc1cncc(-c2ccc3[nH]nc(-c4nc5cccnc5[nH]4)c3n2)c1 [Compound 268, N-(5-(3-(3H-Imidazo[4,5-b]pyridin-2-yl)-1H-pyrazolo[4,3-b]pyridin-5-yl)pyridin-3-yl)-3,3-dimethylbutanamide] | > 10 µM | 32.5%
O=C(Nc1cncc(-c2ccc3[nH]nc(-c4nc5cccnc5[nH]4)c3n2)c1)C1CCCCC1 [Compound 275, N-(5-(3-(3H-Imidazo[4,5-b]pyridin-2-yl)-1H-pyrazolo[4,3-b]pyridin-5-yl)pyridin-3-yl)cyclohexanecarboxamide] | > 10 µM | 33.1%
Cc1ccc(-c2ccnc3[nH]c(-c4n[nH]c5ccc(-c6cncc(NC(=O)C7CCCC7)c6)nc45)nc23)s1 [Compound 414, N-(5-(3-(7-(5-Methylthiophen-2-yl)-3H-imidazo[4,5-b]pyridin-2-yl)-1H-pyrazolo[4,3-b]pyridin-5-yl)pyridin-3-yl)cyclopentanecarboxamide] | 1.85 µM | –

Continued, in another order:

EC50 | SMILES | inhibition at 10 µM
> 10 µM | O=C(Nc1cncc(-c2ccc3[nH]nc(-c4nc5c(-c6cccc(F)c6)ccnc5[nH]4)c3n2)c1)C1CC1 [Compound 20, N-(5-(3-(7-(3-Fluorophenyl)-3H-imidazo[4,5-b]pyridin-2-yl)-1H-pyrazolo [4,3-b]pyridin-5-yl)pyridin-3-yl)cyclopropanecarboxamide] | 16%
> 10 µM | c1cc(-c2ccc3[nH]nc(-c4nc5c(-c6ccncc6)ccnc5[nH]4)c3n2)ccn1 [Compound 130, 5-(pyridin-4-yl)-3-(7-(pyridin-4-yl)-3H-imidazo[4,5-b]pyridin-2-yl)-1H-pyrazolo [4,3-b]pyridine] | 18.9%
> 10 µM | O=C(Nc1cncc(-c2ccc3[nH]nc(-c4nc5c(-c6ccccn6)ccnc5[nH]4)c3n2)c1)c1ccccc1 [Compound 151, N-(5-(3-(7-(Pyridin-2-yl)-3H-imidazo[4,5-b]pyridin-2-yl)-1H-pyrazolo[4,3-b]pyridin-5-yl)pyridin-3-yl)benzamide] | 39.1%
> 10 µM | CN(C)CCNc1cc(F)cc(-c2ccnc3[nH]c(-c4n[nH]c5ccc(-c6ccccn6)nc45)nc23)c1 [Compound 476, N^1-(3-Fluoro-5-(2-(5-(pyridin-2-yl)-1H-pyrazolo[4,3-b]pyridin-3-yl)-3H-imidazo[4,5-b]pyridin-7-yl)phenyl)-N^2,N^2-dimethylethane-1,2-diamine] | 33%
